Experimental findings from paper PMC2606922 (Molecular pharmacology, 2008) are described below.

Test [1] concerns the target adult mouse muscle nAChR, (α1)2β1εδ (Mus musculus, UniProt P02716+P04756+P20782). The experiment in a line: outside-out patch clamp, relative peak current. To be noted: 300 μM ACh, -50 mV, 22-25°C, pH 7.3. The test is classed as biochemical. A general note: Patch clamp records ionic current or voltage across a cell membrane.
Test [2] addresses adult mouse receptors with two δ-subunits (lacking the ε-subunit) (Mus musculus, UniProt P02716+P04756). Kind of test: outside-out patch clamp, relative peak current. It counts as biochemical. To be noted: 300 μM ACh, -50 mV, 22-25°C, pH 7.3.

Structures are written as SMILES.

Chain of adult mouse muscle nAChR, (α1)2β1εδ (P04756 21-457): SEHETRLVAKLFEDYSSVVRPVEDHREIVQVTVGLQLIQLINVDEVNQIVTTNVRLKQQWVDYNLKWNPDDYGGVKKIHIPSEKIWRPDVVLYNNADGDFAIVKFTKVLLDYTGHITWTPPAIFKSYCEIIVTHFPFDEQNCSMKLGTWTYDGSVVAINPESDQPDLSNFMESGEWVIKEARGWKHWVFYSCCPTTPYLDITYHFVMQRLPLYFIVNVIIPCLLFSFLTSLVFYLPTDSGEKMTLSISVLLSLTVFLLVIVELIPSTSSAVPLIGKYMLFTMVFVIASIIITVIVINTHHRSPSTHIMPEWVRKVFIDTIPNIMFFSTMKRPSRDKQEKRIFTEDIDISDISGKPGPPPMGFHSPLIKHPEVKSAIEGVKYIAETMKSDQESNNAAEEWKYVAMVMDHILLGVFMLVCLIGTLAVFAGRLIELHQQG
Chain of adult mouse muscle nAChR, (α1)2β1εδ (P20782 21-493): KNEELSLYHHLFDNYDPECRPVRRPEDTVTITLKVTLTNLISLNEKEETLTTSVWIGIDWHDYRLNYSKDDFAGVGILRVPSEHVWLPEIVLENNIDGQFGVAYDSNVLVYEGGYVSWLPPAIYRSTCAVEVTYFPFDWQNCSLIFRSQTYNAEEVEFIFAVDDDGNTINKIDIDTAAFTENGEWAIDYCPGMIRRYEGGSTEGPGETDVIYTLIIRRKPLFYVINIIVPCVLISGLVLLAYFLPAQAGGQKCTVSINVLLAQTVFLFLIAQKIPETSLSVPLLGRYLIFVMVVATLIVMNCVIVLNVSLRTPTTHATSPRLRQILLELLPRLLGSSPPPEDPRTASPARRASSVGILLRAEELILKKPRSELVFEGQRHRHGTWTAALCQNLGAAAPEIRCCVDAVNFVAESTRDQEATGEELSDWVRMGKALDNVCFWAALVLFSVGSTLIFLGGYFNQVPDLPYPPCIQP
Chain of adult mouse muscle nAChR, (α1)2β1εδ (P02716 25-520): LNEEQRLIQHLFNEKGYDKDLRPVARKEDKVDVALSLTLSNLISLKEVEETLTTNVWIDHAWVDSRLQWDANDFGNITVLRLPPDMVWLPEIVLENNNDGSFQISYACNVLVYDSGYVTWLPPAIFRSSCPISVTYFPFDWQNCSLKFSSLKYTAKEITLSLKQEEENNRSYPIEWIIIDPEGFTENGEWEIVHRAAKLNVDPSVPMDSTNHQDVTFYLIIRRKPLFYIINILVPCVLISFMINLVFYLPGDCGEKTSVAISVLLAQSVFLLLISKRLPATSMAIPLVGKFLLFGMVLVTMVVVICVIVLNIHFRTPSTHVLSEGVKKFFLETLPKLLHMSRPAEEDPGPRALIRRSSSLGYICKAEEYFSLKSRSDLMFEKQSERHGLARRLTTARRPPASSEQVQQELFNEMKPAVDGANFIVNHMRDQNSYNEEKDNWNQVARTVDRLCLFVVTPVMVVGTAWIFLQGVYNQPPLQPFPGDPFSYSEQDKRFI
Chain of adult mouse muscle nAChR, (α1)2β1εδ (P09690 24-501 partner): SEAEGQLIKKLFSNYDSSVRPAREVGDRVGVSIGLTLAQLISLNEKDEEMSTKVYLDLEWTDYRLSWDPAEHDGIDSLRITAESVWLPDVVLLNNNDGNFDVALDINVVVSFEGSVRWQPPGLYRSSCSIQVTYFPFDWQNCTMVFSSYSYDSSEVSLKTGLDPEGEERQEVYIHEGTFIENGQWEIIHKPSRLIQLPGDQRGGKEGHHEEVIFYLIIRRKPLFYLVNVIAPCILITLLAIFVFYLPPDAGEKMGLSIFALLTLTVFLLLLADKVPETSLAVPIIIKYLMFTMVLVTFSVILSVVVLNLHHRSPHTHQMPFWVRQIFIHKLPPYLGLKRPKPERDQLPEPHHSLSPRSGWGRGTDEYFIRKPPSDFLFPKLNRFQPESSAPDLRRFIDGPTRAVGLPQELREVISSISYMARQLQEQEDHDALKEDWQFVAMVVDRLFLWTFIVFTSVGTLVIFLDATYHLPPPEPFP
Chain of adult mouse receptors with two δ-subunits (lacking the ε-subunit) (P04756 21-457): as the sequence (P04756 21-457) above
Chain of adult mouse receptors with two δ-subunits (lacking the ε-subunit) (P02716 25-520): as the sequence (P02716 25-520) above
Chain of adult mouse receptors with two δ-subunits (lacking the ε-subunit) (P09690 24-501 partner): as the sequence (P09690 24-501 partner) above

For `C=CC[N+]1([C@H]2C[C@H]3[C@@H]4CC[C@H]5C[C@H](O)[C@@H](N6CCOCC6)C[C@]5(C)[C@H]4CC[C@]3(C)[C@H]2OC(C)=O)CCCC1` [rocuronium], the “current relative to control at 40 nM” value is given as 0.32 ± 0.05 in test [1] and 0.16 ± 0.01 in test [2].
